# Legend:
# [1] = tested on: cynomolgus monkeys; assay: Evaluation of wake-promoting effects in cynomolgus monkeys (EEG/EMG/EOG); assay type: in vivo, cynomolgus monkey; conditions: Macaca fascicularis, sc, at ZT12, time spent in wakefulness for 4 h after administration, male cynomolgus monkeys, read-out: Wakefulness time (% of vehicle treatment) (Mean, n = 1-2)
# [2] = target: T1, human orexin type 2 receptor (Homo sapiens, UniProt O43614); assay: Measurement of orexin type 2 receptor agonist activity (Fluo-4 calcium fluorescence, FDSS); assay type: cell-based; conditions: 3 μM test compound; CHO cells expressing human OX2 receptor; DMSO = 0%, orexin A (human) = 100%
# T1 construct: expressed in transfected cells
# T1 sequence (O43614 1-444): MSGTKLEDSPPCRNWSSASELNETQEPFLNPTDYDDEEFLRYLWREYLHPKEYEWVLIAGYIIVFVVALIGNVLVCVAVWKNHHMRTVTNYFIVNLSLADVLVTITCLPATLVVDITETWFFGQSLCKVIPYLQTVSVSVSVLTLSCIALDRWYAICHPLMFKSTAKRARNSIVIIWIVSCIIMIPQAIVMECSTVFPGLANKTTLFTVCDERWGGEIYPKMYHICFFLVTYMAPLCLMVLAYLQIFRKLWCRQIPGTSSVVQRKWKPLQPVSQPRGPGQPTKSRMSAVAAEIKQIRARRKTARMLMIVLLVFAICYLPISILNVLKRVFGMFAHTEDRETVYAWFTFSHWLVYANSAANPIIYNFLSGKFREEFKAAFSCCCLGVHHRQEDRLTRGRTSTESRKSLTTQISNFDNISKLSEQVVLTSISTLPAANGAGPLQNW
# Excerpt: To obtain a cell clone stably expressing human orexin type 2 receptor, human orexin type 2 receptor cDNA was inserted into pcDNA3.1(+) plasmid vector (Invitrogen), and a plasmid DNA for expression of human orexin type 2 receptor (pcDNA3.1(+)/hOX2R) was cloned. The plasmid DNA was introduced into CHO-dhfr cell by an electroporation method, and human orexin type 2 receptor expressing clone cells were obtained by limiting dilution method by using G418 drug resistance as a selection marker.
# CHO cells forcibly expressing human OX2 receptor were seeded in each well of 384 well black transparent bottom plate (BD Falcon) at 7,500 cells/well, and cultured for one day in a 5% CO2 incubator at 37° C. […] A test compound prepared by diluting with assay buffer B (HBSS, 20 mM HEPES, 0.1% BSA) was added at 10 μL/well, and the fluorescence value was measured by FDSSUCELL (Hamamatsu Photonics K.K.) every one sec for 1 min, and thereafter every two sec for 1 min 40 sec. The activity (%) of the test compound was calculated assuming that variation in the fluorescence value when DMSO was added instead of the test compound was 0%, and variation in the fluorescence value when orexin A (human) (PEPTIDE INSTITUTE, INC.) was added at the final concentration of 10 nM was 100%.
Compound,response vs control in vivo at 1 mg/kg [1] [%],"OX2R agonist activity (3 μM, %) [2] [%]"
"CCS(=O)(=O)N[C@H]1CCN(C(=O)C(C)(C)O)[C@H]1Cc1cccc(-c2cc(F)cc(F)c2)c1F [Example 484, N-((2S,3S)-1-(2-hydroxy-2-methylpropanoyl)-2-((2,3′,5′-trifluorobiphenyl-3-yl)methyl)pyrrolidin-3-yl)ethanesulfonamide]",492,–
"CCNC(=O)N1CCC[C@H](NS(C)(=O)=O)[C@@H]1Cc1cccc(O[Si](C(C)C)(C(C)C)C(C)C)c1 (relative stereo) [Example 17, cis-N-ethyl-3-((methylsulfonyl)amino)-2-(3-((triisopropylsilyl)oxy)benzyl)piperidine-1-carboxamide]",–,29
"CCS(=O)(=O)N[C@H]1CCN(C(=O)C(C)(C)O)[C@H]1Cc1cccc(-c2cccc(F)c2)c1F [Example 482, N-((2S,3S)-2-((2,3′-difluorobiphenyl-3-yl)methyl)-1-(2-hydroxy-2-methylpropanoyl)pyrrolidin-3-yl)ethanesulfonamide]",281,–
"CC(C)(O)C(=O)N1CC[C@H](NS(C)(=O)=O)[C@@H]1Cc1cccc(-c2cc(F)cc(F)c2)c1F [Example 483, N-((2S,3S)-1-(2-hydroxy-2-methylpropanoyl)-2-((2,3′,5′-trifluorobiphenyl-3-yl)methyl)pyrrolidin-3-yl)methanesulfonamide]",359,–
